Among the data in the supplement of paper PMC10307832 are relative viability values, retold here.

What all share (assay): relative viability (nuclei count vs DMSO), 5 days (fraction); higher = more cells survive
Compound in the assay “XMD14-99 + Tozasertib”: CN1CCN(CC1)C2=CC(=C(C=C2)NC3=NC(=C(S3)C(=O)C4=C(C=CC=C4Cl)Cl)N)OC [XMD14-99] + Cc1cc(Nc2cc(N3CCN(C)CC3)nc(Sc3ccc(NC(=O)C4CC4)cc3)n2)n[nH]1 [Tozasertib] (partner 0.1 µM)
The gist of the method:
(§1)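 After 5 days of treatment, lung cancer cells in 1536-well plates were fixed and stained in a single step (final 0.05% Triton X-100, 1% formaldehyde, 1 ug/ml Hoechst) and their nuclei counted on 4× images. Treatment had been applied by pin tool the day after seeding as one drug alone or as a fixed anchor-drug dose with five library-drug doses (not always all listed) in √10 steps. Relative viability is the nuclei count of treated wells divided by that of vehicle wells, and values are medians of duplicate plates.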

Compound in the assay “AZD1208 + Palbociclib”: N[C@@H]1CCCN(c2c(/C=C3\SC(=O)NC3=O)cccc2-c2ccccc2)C1 [AZD1208] + CC(=O)c1c(C)c2cnc(Nc3ccc(N4CCNCC4)cn3)nc2n(C2CCCC2)c1=O [Palbociclib] (partner 0.5 µM)
The gist of the method: as §1

Compound in the assay “AZD1208 + Dasatinib”: N[C@@H]1CCCN(c2c(/C=C3\SC(=O)NC3=O)cccc2-c2ccccc2)C1 [AZD1208] + Cc1nc(Nc2ncc(C(=O)Nc3c(C)cccc3Cl)s2)cc(N2CCN(CCO)CC2)n1 [Dasatinib] (partner 0.075 µM)
An outline of the steps:
as §1

Compound in the assay “AZD1208 + Olaparib”: N[C@@H]1CCCN(c2c(/C=C3\SC(=O)NC3=O)cccc2-c2ccccc2)C1 [AZD1208] + O=C(c1cc(Cc2n[nH]c(=O)c3ccccc23)ccc1F)N1CCN(C(=O)C2CC2)CC1 [Olaparib] (partner 8 µM)
An outline of the steps:
as §1

Consider UMC-11, for which the relative viability turned out to be 0.196 with XMD14-99 + Tozasertib (first compound 0.08 µM); 0.227 in the assay with XMD14-99 + Tozasertib (first compound 0.8 µM); 0.231 with XMD14-99 + Tozasertib (first compound 2.53 µM); 0.23 with XMD14-99 + Tozasertib (first compound 8 µM); 0.293 with AZD1208 + Palbociclib (first compound 0.08 µM); 0.281 with AZD1208 + Palbociclib (first compound 0.253 µM). Also, the relative viability with AZD1208 + Palbociclib (first compound 0.8 µM) came to 0.291; in the assay with AZD1208 + Palbociclib (first compound 2.53 µM), 0.308; with AZD1208 + Palbociclib (first compound 8 µM) it was 0.262; in the assay with AZD1208 + Dasatinib (first compound 0.08 µM), 0.462; in the assay with AZD1208 + Dasatinib (first compound 0.253 µM) it was 0.469; in the assay with AZD1208 + Dasatinib (first compound 0.8 µM), 0.446. In addition, the relative viability is 0.483 with AZD1208 + Dasatinib (first compound 2.53 µM); 0.41 in the assay with AZD1208 + Dasatinib (first compound 8 µM); 0.27 with AZD1208 + Olaparib (first compound 0.08 µM); 0.374 with AZD1208 + Olaparib (first compound 0.253 µM); 0.333 in the assay with AZD1208 + Olaparib (first compound 0.8 µM); 0.309 with AZD1208 + Olaparib (first compound 2.53 µM). The relative viability with AZD1208 + Olaparib (first compound 8 µM) came to 0.264.
